In US20020049139A1, “Herbicidal compositions containing DMSO” (priority 1997, published 2002):

Tests used:
[1] = system: hosta; assay: Phytotoxicity of DMSO sprays on hosta; format: in vivo
Method: (§1) Phytotoxicity of DMSO sprays was evaluated on hosta, ferns and azaleas. In each instance, groups of 6 plants were sprayed with 1%, 2%, 5% or 10% aqueous DMSO.

[2] = system: cacao seedling; settings: aqueous solutions containing 40% or greater amounts of DMSO; cited from earlier work
[3] = system: ferns; assay: Phytotoxicity of DMSO sprays on ferns; format: in vivo
Method: as §1

[4] = system: azaleas; assay: Phytotoxicity of DMSO sprays on azaleas; format: in vivo, azalea
Method: as §1

[5] = system: sickle pod; assay: Greenhouse control of sickle pod by glyphosate with/without DMSO; format: in vivo
Method: Glyphosate (N-(phosphonomethyl) glycine), the active agent (41%) in Composition B and other similar non-selective herbicidal products for control of many annual and perennial grasses, broadleaf weeds, woody shrubs and trees was evaluated in greenhouse studies. The LD50 range for glyphosate in the commercial concentrate Composition B on sickle pod grown in the greenhouse was established at 0.06%, and […].
Data showing effectiveness for control of sickle pod at concentration 0.06% and 0.3% in carrier with 3% DMSO are shown below. The testing procedure used 12 sickle pod 3 inches high selected for uniformity in each treatment. The rating of injury to each plant was based on visual rating of herbicidal activity with +=10%, ++=25%, +++=50%, ++++−75% and dead plants=[…].

[6] = system: sickle pod; assay: as above; format: in vivo; remark: listed apart in the source

Row | SMILES | Effects ([1]; hosta sprayed with 2% aqueous DMSO) | Effects ([1]; hosta sprayed with 5% aqueous DMSO) | Effects ([1]; hosta sprayed with 10% aqueous DMSO) | effect on cacao seedling [2] | Effects ([3]; ferns sprayed with 2% aqueous DMSO) | Effects ([3]; ferns sprayed with 5% aqueous DMSO) | Effects ([3]; ferns sprayed with 10% aqueous DMSO) | Effects ([4]; azalea sprayed with 2% aqueous DMSO) | Effects ([4]; azalea sprayed with 5% aqueous DMSO) | Effects ([4]; azalea sprayed with 10% aqueous DMSO) | % control of sickle pod ([5]; 0.03% glyphosate only, 12 days) [%] | % control of sickle pod ([5]; 0.06% glyphosate only, 12 days) [%] | % control of sickle pod ([5]; 0.06% glyphosate only, 20 days) [%] | % control of sickle pod ([5]; 0.06% glyphosate only, 30 days) [%] | % control of sickle pod ([5]; 0.06% glyphosate with 3% DMSO, 12 days) [%] | % control of sickle pod ([5]; 0.06% glyphosate, 3% DMSO, 20 days) [%] | control of sickle pod over a 30 day interval with 3% DMSO versus glyphosate only ([5]; 0.06% glyphosate, 3% DMSO, 30 day interval) | % control of sickle pod ([5]; 0.06% glyphosate, 3% DMSO, 30 days) [%] | % control of sickle pod ([6]; 0.03% glyphosate with 3% DMSO, 12 days) [%] | sickle pod control with 3% DMSO versus without DMSO ([6]; glyphosate at 0.06% and 0.03%, 3% DMSO present)
1 | C[S+](C)[O-] [DMSO, Dimethylsulfoxide] | non-toxic | non-toxic | Margina burn | marginal necroses | non-toxic | burn on fron tips | burn on fron tips | non-toxic | non-toxic | non-toxic |  |  |  |  |  |  |  |  |  | 
2 | O=C(O)CNCP(=O)(O)O [glyphosate, N-(phosphonomethyl) glycine] |  |  |  |  |  |  |  |  |  |  | 54 | 51 | 43 | 85 | 90 | 85 | improved early and sustained control | 96 | 85 | significant improvement
